Laboratory results reported in ChEMBL document CHEMBL1140350, “The endocannabinoid system: drug targets, lead compounds, and potential therapeutic applications” (J Med Chem, 2005).
pIC50, pKi: −log10 of the molar value.

Experiments:
[1] = biological target: T1, N-acylethanolamine-hydrolyzing acid amidase (Homo sapiens, UniProt Q02083); assay: Inhibitory concentration against N-palmitoylethanolamine acid amidase
T1 sequence (Q02083 whole entry): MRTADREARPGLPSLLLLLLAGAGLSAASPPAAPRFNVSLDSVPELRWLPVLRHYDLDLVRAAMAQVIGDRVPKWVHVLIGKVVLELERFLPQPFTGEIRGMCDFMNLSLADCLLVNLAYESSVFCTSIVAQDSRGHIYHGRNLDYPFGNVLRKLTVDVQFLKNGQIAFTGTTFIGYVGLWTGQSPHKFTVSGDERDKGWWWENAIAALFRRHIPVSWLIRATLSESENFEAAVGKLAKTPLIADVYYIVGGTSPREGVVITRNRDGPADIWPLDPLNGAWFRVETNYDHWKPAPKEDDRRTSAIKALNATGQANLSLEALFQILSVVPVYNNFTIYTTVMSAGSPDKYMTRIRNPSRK

[2] = biological target: T2, Fatty-acid amide hydrolase 1 (Homo sapiens, UniProt O00519); assay: Irreversible inhibition of fatty acid amide hydrolase
T2 sequence (O00519 whole entry): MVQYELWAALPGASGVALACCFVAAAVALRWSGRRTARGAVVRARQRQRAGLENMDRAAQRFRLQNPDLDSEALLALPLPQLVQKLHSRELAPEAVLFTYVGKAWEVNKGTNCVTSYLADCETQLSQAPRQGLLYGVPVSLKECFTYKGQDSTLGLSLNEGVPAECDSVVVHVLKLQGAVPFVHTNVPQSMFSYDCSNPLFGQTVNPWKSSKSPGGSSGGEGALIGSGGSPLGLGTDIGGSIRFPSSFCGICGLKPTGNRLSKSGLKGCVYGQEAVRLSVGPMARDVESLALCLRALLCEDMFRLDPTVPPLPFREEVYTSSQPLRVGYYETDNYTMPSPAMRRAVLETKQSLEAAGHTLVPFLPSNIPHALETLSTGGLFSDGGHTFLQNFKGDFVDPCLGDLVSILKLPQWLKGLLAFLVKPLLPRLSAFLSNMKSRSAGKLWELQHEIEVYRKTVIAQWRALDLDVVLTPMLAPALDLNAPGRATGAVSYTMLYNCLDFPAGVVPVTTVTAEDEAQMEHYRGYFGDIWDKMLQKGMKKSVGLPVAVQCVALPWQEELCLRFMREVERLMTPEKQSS

[3] = Binding affinity for cannabinoid receptor 2
[4] = biological target: T3, Fatty-acid amide hydrolase 1 (Mus musculus) (UniProt O08914); assay: Inhibitory potency against fatty acid amide hydrolase activity in mouse brain microsomes in presence of 58 uM anandamide at 160 uM; assay type: functional; conditions: Microsome
T3 sequence (whole entry): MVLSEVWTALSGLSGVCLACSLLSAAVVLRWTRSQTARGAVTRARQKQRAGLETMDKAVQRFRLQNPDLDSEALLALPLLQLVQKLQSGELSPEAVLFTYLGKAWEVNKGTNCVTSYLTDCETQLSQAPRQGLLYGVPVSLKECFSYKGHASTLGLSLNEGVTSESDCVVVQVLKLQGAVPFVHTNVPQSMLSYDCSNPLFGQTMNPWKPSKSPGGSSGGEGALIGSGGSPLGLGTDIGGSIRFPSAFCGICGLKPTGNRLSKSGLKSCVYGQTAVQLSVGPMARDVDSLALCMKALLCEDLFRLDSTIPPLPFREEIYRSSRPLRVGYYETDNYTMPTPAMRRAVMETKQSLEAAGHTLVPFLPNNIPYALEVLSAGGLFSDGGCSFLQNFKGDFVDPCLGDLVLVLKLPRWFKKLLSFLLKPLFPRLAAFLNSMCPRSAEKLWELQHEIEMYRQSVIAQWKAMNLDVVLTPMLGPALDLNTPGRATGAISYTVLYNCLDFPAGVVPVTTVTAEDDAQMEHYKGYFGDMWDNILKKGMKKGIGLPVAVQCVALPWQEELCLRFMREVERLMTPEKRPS

Cannabinoid receptor 1 [5] = biological target: T4, Cannabinoid receptor 1 (Rattus norvegicus, UniProt P20272); assay: (§1) Binding affinity for cannabinoid receptor 1
T4 sequence (P20272 whole entry): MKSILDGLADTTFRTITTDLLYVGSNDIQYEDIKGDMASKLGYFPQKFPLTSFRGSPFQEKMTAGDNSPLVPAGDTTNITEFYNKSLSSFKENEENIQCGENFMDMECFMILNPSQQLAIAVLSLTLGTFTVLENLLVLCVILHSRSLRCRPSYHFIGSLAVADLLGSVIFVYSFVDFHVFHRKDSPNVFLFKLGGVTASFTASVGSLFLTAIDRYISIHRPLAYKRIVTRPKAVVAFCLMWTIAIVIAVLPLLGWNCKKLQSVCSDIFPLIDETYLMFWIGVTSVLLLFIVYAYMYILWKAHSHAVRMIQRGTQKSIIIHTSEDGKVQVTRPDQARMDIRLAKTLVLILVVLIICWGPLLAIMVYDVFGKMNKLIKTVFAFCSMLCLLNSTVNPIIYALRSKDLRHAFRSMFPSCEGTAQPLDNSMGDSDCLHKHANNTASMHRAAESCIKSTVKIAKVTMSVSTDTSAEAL

[6] = biological target: T2, Fatty-acid amide hydrolase 1; assay: Irreversible inhibition of fatty acid amide hydrolase; range=. 5-6 nM
[7] = biological target: T2, Fatty-acid amide hydrolase 1; assay: Inhibitory concentration against fatty acid amide hydrolase
Cannabinoid receptor 1 [8] = biological target: Cannabinoid receptor 1 (Homo sapiens, UniProt P21554); assay: as §1
Cannabinoid receptor 1 (Homo sapiens, UniProt P21554), sequence (P21554 whole entry): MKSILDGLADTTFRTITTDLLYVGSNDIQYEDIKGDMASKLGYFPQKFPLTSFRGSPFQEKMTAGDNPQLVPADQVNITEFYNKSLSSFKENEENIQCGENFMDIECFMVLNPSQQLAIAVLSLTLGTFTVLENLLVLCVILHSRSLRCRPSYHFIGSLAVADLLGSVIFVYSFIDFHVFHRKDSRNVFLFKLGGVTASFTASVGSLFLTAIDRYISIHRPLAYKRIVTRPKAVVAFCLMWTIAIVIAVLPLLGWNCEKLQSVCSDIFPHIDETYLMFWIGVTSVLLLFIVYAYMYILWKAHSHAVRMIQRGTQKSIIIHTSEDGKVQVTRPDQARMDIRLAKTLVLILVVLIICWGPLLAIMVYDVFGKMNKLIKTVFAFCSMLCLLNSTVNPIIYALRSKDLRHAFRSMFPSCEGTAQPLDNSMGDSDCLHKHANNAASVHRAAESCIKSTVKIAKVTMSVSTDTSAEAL

Mus musculus = species on record: Mus musculus; assay: Concentration required to inhibit anandamide uptake from the extracellular medium into cells; assay type: functional, cell-based
Cannabinoid receptor 1 [9] = biological target: T4, Cannabinoid receptor 1; assay: Inhibition of [3H]CP-55940 binding to rat cannabinoid receptor 1
[10] = biological target: T2, Fatty-acid amide hydrolase 1; assay: Binding affinity for human fatty acid amide hydrolase
Monoglyceride lipase = biological target: T5, Monoglyceride lipase (Homo sapiens, UniProt Q99685); assay: Inhibitory concentration against monoacylglycerol lipase
T5 sequence (Q99685 whole entry): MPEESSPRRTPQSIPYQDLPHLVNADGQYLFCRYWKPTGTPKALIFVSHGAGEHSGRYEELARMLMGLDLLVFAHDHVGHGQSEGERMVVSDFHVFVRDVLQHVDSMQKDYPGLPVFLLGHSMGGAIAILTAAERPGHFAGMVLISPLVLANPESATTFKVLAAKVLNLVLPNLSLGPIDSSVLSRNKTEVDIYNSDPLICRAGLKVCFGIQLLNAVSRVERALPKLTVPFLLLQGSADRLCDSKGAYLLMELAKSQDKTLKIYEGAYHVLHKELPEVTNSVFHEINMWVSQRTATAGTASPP

[11] = biological target: T2, Fatty-acid amide hydrolase 1; assay: Binding affinity for fatty acid amide hydrolase
Cannabinoid receptor = Cannabinoid receptor (Homo sapiens, UniProt P34972+P21554); assay: Binding affinity for Cannabinoid receptor; assay type: protein assay
[12] = biological target: T2, Fatty-acid amide hydrolase 1; assay: Apparent binding affinity for fatty acid amide hydrolase
[13] = biological target: T2, Fatty-acid amide hydrolase 1; assay: Inhibition of fatty acid amide hydrolase; range = 4.1-7 uM
Homo sapiens = species on record: Homo sapiens; assay: Concentration required to inhibit anandamide uptake into human monocytes; assay type: functional
[14] = biological target: T6, N-acylethanolamine-hydrolyzing acid amidase (Homo sapiens) (UniProt Q02083); assay: Percent inhibition aganist N-palmitoylethanolamine acid amidase at 10 uM
T6 sequence (whole entry): T1 sequence (Q02083 whole entry)

[15] = biological target: T2, Fatty-acid amide hydrolase 1; assay: Inhibition of fatty acid amide hydrolase; range =. 23-3 uM

CCCCCCCCCCCCCCCCOC(=O)CC [HEXADECYLPROPIONATE]
pIC50 [1]: 4.49

CCCCCCCCCCCCS(=O)(=O)F [DODECANESULFONYL FLUORIDE]
pIC50 [2]: 8.52

CCCCCc1cc(O)c2c(c1)OC(C)(C)[C@@H]1CCC(C)=C[C@@H]21 [DRONABINOL]
pKi [3]: 7.70
inhibition [4]: 31%

CCCCC/C=C\C/C=C\C/C=C\C/C=C\CCCCOC(CO)CO
pKi (Cannabinoid receptor 1 [5]): 7.68

CCCCC/C=C\C/C=C\C/C=C\C/C=C\CCCC(=O)[CH-][N+]#N
pIC50 [6]: 8.22

CCCCC/C=C\C/C=C\C/C=C\C/C=C\CCCC(=O)NCCc1c[nH]c2ccc(O)cc12
pIC50 [7]: 4.92

CCCCCCCCCCC[C@@H](C[C@@H]1OC(=O)[C@H]1CCCCCC)OC(=O)[C@H](CC(C)C)NC=O [ORLISTAT]
pIC50 (Cannabinoid receptor 1 [8]): ≥ 7.00

C=C(C)[C@@H]1CCC(C)=C[C@H]1c1c(O)cc(CCCCC)cc1O
inhibition [4]: 66%

CCCCC/C=C\C/C=C\C/C=C\C/C=C\CCCC(=O)Nc1ccc(O)cc1
pIC50 (Mus musculus): ~5.00

CCCCCCCC/C=C\CCCCCCCC(N)=O [OLEAMIDE]
pKi (Cannabinoid receptor 1 [9]): 5.94

O=C(CCCCCc1ccccc1)c1nc2ncccc2o1
pKi [10]: 10.03

CCCCC/C=C\C/C=C\CC/C=C\CCCC(=O)NCCc1ccc(O)c(O)c1
pIC50 [7]: 4.72

CCCCC/C=C\C/C=C\C/C=C\C/C=C\CCCC(=O)OCCO
pIC50 (Monoglyceride lipase): 4.60
pIC50 [7]: < 4.60

O=C1O/C(=C/Br)CCC1c1cccc2ccccc12 (stereo not drawn) [BROMOENOL LACTONE]
pIC50 [2]: 6.10

CCCCCCCCCCCCCCCCCCS(=O)(=O)F [OCTADECANESULFONYL FLUORIDE]
pIC50 [2]: 8.40

CCCCC/C=C\C/C=C\C/C=C\C/C=C\CCC(C)C(=O)OCC(O)CO (stereo not drawn)
pIC50 (Monoglyceride lipase): ~4.96
pIC50 [7]: ~4.96

CCCCCCCC/C=C\CCCCCCCC(=O)C(F)(F)F
pKi [11]: 8.92

CCCCC/C=C\C/C=C\C/C=C\C/C=C\CCCC(=O)NCCO [ANANDAMIDE]
pKi [3]: 6.43

O=C(CCCCCCCc1ccccc1)C(F)(F)F
pKi [11]: 7.60

CCCCCCCC/C=C\CCCCCCCC(=O)c1nc2ncccc2o1
pKi [11]: 8.64

CC(C)(/C=C\C/C=C\C/C=C\C/C=C\CCCC(=O)OCC(O)CO)CCCCC#N (stereo not drawn)
pIC50 (Monoglyceride lipase): ~4.96
pIC50 [7]: ~4.96

CCCCC/C=C\C/C=C\C/C=C\C/C=C\CCCCS(=O)(=O)F
pIC50 [2]: 10.00

Cc1c(C(=O)c2cccc3ccccc23)c2cccc3c2n1[C@H](CN1CCOCC1)CO3 [WIN-552122]
pKi [3]: 8.74

CCCCCC[C@@H](C)OC(=O)CC(=O)CBr
Ki (Cannabinoid receptor): 800 nM

CCCCCCCc1ccc(CCCCCCC(=O)C(F)(F)F)cc1
pKi [12]: 7.02

CCCCCCCCCCCCCCCNC(=O)CCO
pIC50 [1]: 4.27

CCCCCCCC/C=C\CCCCCCC(C)C(=O)c1nc2ncccc2o1 (stereo not drawn)
pKi [11]: 8.04

CCCCCCCCCCCCCCCC(=O)NCC(=O)OC
pIC50 [7]: 5.00

CCCCCCCCCCCCCCCC(=O)OC1CCCCC1 [CYCLOHEXYL PALMITATE]
pIC50 [1]: 4.72

CCCCC/C=C\C/C=C\C/C=C\C/C=C\CCCC(=O)NCC(=O)O [ARACHIDONOYL GLYCINE]
pIC50 [13]: 5.15

O=S(=O)(F)Cc1ccccc1 [PHENYLMETHYLSULFONYLFLUORIDE]
pIC50 [2]: 4.89

C=CCOc1ccc(CN(C/C=C/c2ccccc2)CCCC)cc1
pIC50 (Homo sapiens): 7.05

CCCCC/C=C\C/C=C\C/C=C\C/C=C\CCCC(=O)OCCN
pKi (Cannabinoid receptor 1 [5]): 5.72
pKi [3]: 5.85

O=C(CCCCCCc1ccccc1)c1nc2ncccc2o1
pIC50 [7]: 8.68

CC(C)c1cccc(C(C)C)c1O [PROPOFOL]
pIC50 [7]: 4.28

CCCCCCC(C)(C)c1ccc([C@@H]2C[C@H](O)CC[C@H]2CCCO)c(O)c1 [CP-55940]
pKi [3]: 8.59

CCCCC/C=C\C/C=C\C/C=C\C/C=C\CCCC(=O)c1nc2ncccc2o1
pKi [11]: 9.00

CCCCC/C=C\C/C=C\C/C=C\C/C=C\CCCC(=O)NCCc1ccc(O)c(O)c1 [ARACHIDONOYL DOPAMINE]
pKi (Cannabinoid receptor 1 [5]): 6.60
pKi [3]: 7.92

CCCCCCCCCCCCCCCNC(=O)c1ccccc1
inhibition [14]: 61%

CCCCCCCCCCCCCCCNC(=O)COC(C)=O [ACETIC ACID PENTADECYLCARBAMOYLMETHYL ESTER]
pIC50 [7]: 5.10

CC(C)(/C=C\C/C=C\C/C=C\C/C=C\CCCC(=O)OCC(O)CO)CCCCO (stereo not drawn)
pIC50 (Monoglyceride lipase): ~4.96
pIC50 [7]: ~4.96

CCCCCCCCCCCCCCCNC(=O)C1CCCCC1 [CYCLOHEXANECARBOXYLIC ACID PENTADECYLAMIDE]
inhibition [14]: 66%
pIC50 [1]: 5.35

CCCCCc1cc(O)c2c(c1)OC(C)(C)c1ccc(C)cc1-2
inhibition [4]: 46%

CCCCC/C=C\C/C=C\C/C=C\C/C=C\CCCC(=O)C(F)(F)F [ARACHIDONYL TRIFLUOROMETHYLKETONE]
pIC50 [15]: 5.52

CCCCCCCCCCCCCCCC(=O)NC(C)C [HEXADECANOIC ACID ISOPROPYLAMIDE]
pIC50 [7]: 7.89
